Target: Glutaminyl-peptide cyclotransferase (Homo sapiens, UniProt Q16769)
Assay: Inhibition of human recombinant glutaminyl cyclase using H-Gln-AMC hydrobromide as substrate measured after 15 mins by fluorimetry

Sequence of Glutaminyl-peptide cyclotransferase (Q16769 whole entry): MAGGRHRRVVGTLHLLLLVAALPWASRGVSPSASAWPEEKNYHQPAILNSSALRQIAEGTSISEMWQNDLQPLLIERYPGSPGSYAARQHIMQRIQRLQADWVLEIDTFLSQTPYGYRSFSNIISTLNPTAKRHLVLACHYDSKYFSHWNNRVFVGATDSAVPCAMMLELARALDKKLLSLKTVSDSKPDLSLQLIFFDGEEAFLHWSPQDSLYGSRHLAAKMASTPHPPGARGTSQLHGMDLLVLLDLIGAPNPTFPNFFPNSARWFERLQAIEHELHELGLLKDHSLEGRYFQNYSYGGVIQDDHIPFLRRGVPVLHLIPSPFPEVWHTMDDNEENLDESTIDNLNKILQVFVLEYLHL

## COc1ccc(N(C(=S)NCCCn2cncc2C)C2CCN(C)CC2)cc1OC
  IC50: 6.1 nM
